Results as given in PubChem BioAssay (NCI).
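All cell lines were grown in 96-well plates and treated with compound for 48 hours. At the GI50, growth is halved. The concentration for full growth arrest is given as TGI.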

Key:
Test in all cases: NCI tumour cell line growth inhibition, 48 h
786-0 renal = tested on: 786-0 renal
HL-60(TB) leukemia = tested on: HL-60(TB) leukemia
SF-539 CNS = tested on: SF-539 CNS
SK-MEL-2 melanoma = tested on: SK-MEL-2 melanoma
A498 renal = tested on: A498 renal
HCT-116 colon = tested on: HCT-116 colon
HT29 colon = tested on: HT29 colon
NCI/ADR-RES ovarian = tested on: NCI/ADR-RES ovarian
UACC-257 melanoma = tested on: UACC-257 melanoma
SR leukemia = tested on: SR leukemia
MOLT-4 leukemia = tested on: MOLT-4 leukemia
K-562 leukemia = tested on: K-562 leukemia
HCT-15 colon = tested on: HCT-15 colon
SN12C renal = tested on: SN12C renal
DU-145 prostate = tested on: DU-145 prostate
BT-549 breast = tested on: BT-549 breast
UACC-62 melanoma = tested on: UACC-62 melanoma
M14 melanoma = tested on: M14 melanoma
NCI-H522 lung = tested on: NCI-H522 lung
MCF7 breast = tested on: MCF7 breast
T-47D breast = tested on: T-47D breast
MALME-3M melanoma = tested on: MALME-3M melanoma
CAKI-1 renal = tested on: CAKI-1 renal
IGROV1 ovarian = tested on: IGROV1 ovarian
NCI-H460 lung = tested on: NCI-H460 lung
HCC-2998 colon = tested on: HCC-2998 colon
MDA-MB-231 breast = tested on: MDA-MB-231 breast
MDA-MB-435 = tested on: MDA-MB-435
SK-OV-3 ovarian = tested on: SK-OV-3 ovarian
KM12 colon = tested on: KM12 colon
U251 CNS = tested on: U251 CNS
SK-MEL-28 melanoma = tested on: SK-MEL-28 melanoma
HOP-62 NSCLC = tested on: HOP-62 NSCLC
SNB-19 CNS = tested on: SNB-19 CNS
OVCAR-5 ovarian = tested on: OVCAR-5 ovarian
RPMI-8226 leukemia = tested on: RPMI-8226 leukemia
SF-268 CNS = tested on: SF-268 CNS
SNB-75 CNS = tested on: SNB-75 CNS
ACHN renal = tested on: ACHN renal
TK-10 renal = tested on: TK-10 renal
PC-3 prostate = tested on: PC-3 prostate
NCI-H23 lung = tested on: NCI-H23 lung
COLO 205 colon = tested on: COLO 205 colon
SK-MEL-5 melanoma = tested on: SK-MEL-5 melanoma
HOP-92 NSCLC = tested on: HOP-92 NSCLC
CCRF-CEM leukemia = tested on: CCRF-CEM leukemia
OVCAR-4 ovarian = tested on: OVCAR-4 ovarian
SW-620 colon = tested on: SW-620 colon
OVCAR-8 ovarian = tested on: OVCAR-8 ovarian
RXF 393 renal = tested on: RXF 393 renal
EKVX NSCLC = tested on: EKVX NSCLC
UO-31 renal = tested on: UO-31 renal
SF-295 CNS = tested on: SF-295 CNS
HS 578T breast = tested on: HS 578T breast
A549 NSCLC = tested on: A549 NSCLC
NCI-H226 lung = tested on: NCI-H226 lung

## Fc1ccc(-c2cc3nc(C(Cl)Cl)nc(-c4cccs4)n3n2)cc1
786-0 renal
  GI50: 2.31 µM
  TGI: 7.33 µM
HL-60(TB) leukemia
  GI50: 0.29 µM
  TGI: 2.23 µM
SF-539 CNS
  GI50: 1.05 µM
  TGI: 2.89 µM
SK-MEL-2 melanoma
  GI50: 3.1 µM
  TGI: 9.66 µM
A498 renal
  GI50: 1.02 µM
  TGI: 2.36 µM
HCT-116 colon
  GI50: 1.53 µM
  TGI: > 100 µM
HT29 colon
  GI50: 0.356 µM
  TGI: 2.05 µM
NCI/ADR-RES ovarian
  GI50: 1.17 µM
  TGI: 5.66 µM
UACC-257 melanoma
  GI50: 3.04 µM
  TGI: 9.15 µM
SR leukemia
  GI50: 3.7 µM
  TGI: > 100 µM
MOLT-4 leukemia
  GI50: 3.56 µM
  TGI: > 100 µM
K-562 leukemia
  GI50: 2.53 µM
  TGI: > 100 µM
HCT-15 colon
  GI50: 1.1 µM
  TGI: 3.71 µM
SN12C renal
  GI50: 36.1 µM
  TGI: > 100 µM
DU-145 prostate
  GI50: 0.31 µM
  TGI: 0.888 µM
BT-549 breast
  GI50: > 100 µM
  TGI: > 100 µM
UACC-62 melanoma
  GI50: 2.71 µM
  TGI: 15 µM
M14 melanoma
  GI50: 4.5 µM
  TGI: > 100 µM
NCI-H522 lung
  GI50: > 100 µM
  TGI: > 100 µM
MCF7 breast
  GI50: 0.369 µM
  TGI: 4.31 µM
T-47D breast
  GI50: 1.6 µM
  TGI: 7.24 µM
MALME-3M melanoma
  GI50: 7.5 µM
  TGI: > 100 µM
CAKI-1 renal
  GI50: 1.22 µM
  TGI: 5.04 µM
IGROV1 ovarian
  GI50: 3.07 µM
  TGI: > 100 µM
NCI-H460 lung
  GI50: 0.309 µM
  TGI: 1.19 µM
HCC-2998 colon
  GI50: 0.41 µM
  TGI: 1.59 µM
MDA-MB-231 breast
  GI50: 0.505 µM
  TGI: 3.1 µM
MDA-MB-435
  GI50: 1.63 µM
  TGI: 3.45 µM
SK-OV-3 ovarian
  GI50: 2.21 µM
  TGI: 13.8 µM
KM12 colon
  GI50: 2.2 µM
  TGI: 17.5 µM
U251 CNS
  GI50: 0.319 µM
  TGI: 1.98 µM
SK-MEL-28 melanoma
  GI50: 1.86 µM
  TGI: 3.59 µM
HOP-62 NSCLC
  GI50: 0.454 µM
  TGI: 3.46 µM
SNB-19 CNS
  GI50: 0.664 µM
  TGI: 4.4 µM
OVCAR-5 ovarian
  GI50: 1.75 µM
  TGI: 5.31 µM
RPMI-8226 leukemia
  GI50: 0.847 µM
  TGI: 5.79 µM
SF-268 CNS
  GI50: 1.61 µM
  TGI: 7.99 µM
SNB-75 CNS
  GI50: 0.284 µM
  TGI: 2.81 µM
ACHN renal
  GI50: 0.301 µM
  TGI: 1.21 µM
TK-10 renal
  GI50: 3.14 µM
  TGI: 6.88 µM
PC-3 prostate
  GI50: 1.19 µM
  TGI: 4.67 µM
NCI-H23 lung
  GI50: 1.47 µM
  TGI: 4 µM
COLO 205 colon
  GI50: 0.805 µM
  TGI: 3.12 µM
SK-MEL-5 melanoma
  GI50: > 100 µM
  TGI: > 100 µM
HOP-92 NSCLC
  GI50: 0.537 µM
  TGI: 2.96 µM
CCRF-CEM leukemia
  GI50: 19.6 µM
  TGI: > 100 µM
OVCAR-4 ovarian
  GI50: 2.39 µM
  TGI: 6.22 µM
SW-620 colon
  GI50: 1.18 µM
  TGI: 8.61 µM
OVCAR-8 ovarian
  GI50: 1.21 µM
  TGI: > 100 µM
RXF 393 renal
  GI50: 0.403 µM
  TGI: 1.71 µM
EKVX NSCLC
  GI50: 1.12 µM
  TGI: 4.07 µM
UO-31 renal
  GI50: 1.26 µM
  TGI: 5.5 µM
SF-295 CNS
  GI50: 0.949 µM
  TGI: 4.79 µM
HS 578T breast
  GI50: 1.95 µM
  TGI: 7.03 µM
A549 NSCLC
  GI50: 0.745 µM
  TGI: 4.92 µM
NCI-H226 lung
  GI50: > 100 µM
  TGI: > 100 µM
